Results taken from US11505574B2, “Modulation of P53 for the treatment of cancer” (THE REGENTS OF THE UNIVERSITY OF CALIFORNIA, priority 2016, dated 2022).

Key:
p53 = test: Western blot for p53 and downstream targets in MCF7 cells treated with peptides; format: cell-based, human; settings: MCF7 cells
HaCaT cells = test: HaCaT cell colony formation assay; format: cell-based; settings: HaCaT cells (mutant p53); 10 μM for 20 minutes then 0.5 ng/mL doxorubicin 18 hours (FIG. 37D)
Procedure: For the experiments shown in FIG. 37D, HaCaT and MiaPaCa2 cells were grown in 6-well plates at 500 cells per well. The following day, 10 μM Pen-Ctrl (SEQ ID NO:10), Pen-Pep23 (SEQ ID NO:9), or Pen-Pep8 (SEQ ID NO:50) were added to the cells for 20 minutes followed by treatment with 0.5 ng/mL doxorubicin (for HaCaT cells) or 0.25 ng/mL doxorubicin (for miaPaCa2 cells) for 18 hours, then the media was changed to fresh DMEM. After colonies formed they were fixed (i.e., using 7:1 MeOH:glacial acetic acid) and stained with crystal violet.

MCF7 tumor spheres = test: MCF7 tumor sphere assay; format: cell-based, human; settings: MCF7 cells; 5 μM; 6.25 ng/mL doxorubicin; 7 days (FIGS. 34E, 34F)
Procedure: For the experiments shown in FIG. 34E, MCF7 cells were plated at a density of 20,000 cells per well using 2 mL Mammocult media in 6-well ultra-low adherent plates. The following day, cells were treated with Pen-Ctrl or Pen-Pep8 at a concentration of 5 μM. Peptides were added to each well for 20 minutes followed by 6.25 ng/mL doxorubicin. Cells were grown for 7 days and then the number of tumor spheres that were larger than 50 μm in diameter were counted (i.e., 20 10× photos were randomly taken and tumor spheres counted from the digital photos). For the graph shown in FIG. 34F, statistical analysis was performed using the student's t-test (n=3; *p≤0.05).
For the experiments shown in FIG. 36C, MCF7 cells were plated at a density of 20,000 cells per well using 2 mL Mammocult media in 6-well ultra-low adherent plates. The following day, cells were treated with 150 nM Cyc-Ctrl or Cyc-Pep8 (SEQ ID NO:5). 150 nM Cyc-Ctr/Pep8 was incubated in 100 μL serum-free DMEM with 3 μg PEP1 for 25 minutes before being added to the cells. After 20 minutes, 3.125 ng/mL doxorubicin was added to the cells for 7 days. Cells were grown for 7 days and then tumor spheres were counted that were larger than 50 μm in diameter (i.e., 20 10× photos were randomly taken and tumor spheres were counted from the digital photos).

[1] = system: MIA-PaCa-2 pancreatic cancer cells; test: MIA-PaCa-2 cell colony formation assay (peptides); format: cell-based, human; settings: miaPaCa2 cells (mutant p53); 10 μM for 20 minutes then 0.25 ng/mL doxorubicin 18 hours (FIG. 37D)
Description: […] […] After colonies formed they were fixed (i.e., using 7:1 MeOH:glacial acetic acid) and stained with crystal violet.

RKO tumor xenograft = RKO tumor xenograft model in nude mice; format: in vivo
Procedure: 6-week-old female nude mice were used for the xenograft study (FIG. 35A). 1×10^6 RKO cells in a 1:1 mixture of matrigel:DMEM (serum-free) were injected into the right flank of the nude mice. After tumors had grown to a size of about 100 mm^3, treatment with either Pen-Ctrl or Pen-Pep8 (5 μM in 50 μL sterile PBS) was administered by intratumoral injection every 2 days for 2 weeks. After treatment, the animals were sacrificed and tumors were excised, measured, and weighed followed by being flash frozen (n=6 for each group). Xenograft volume over the course of treatment and final tumor weight after the animals were sacrificed are shown in FIGS. 35B and 35C, respectively. Furthermore, pieces of the frozen xenografts were cut using a sterile scalpel and then the tumor tissue was lysed and lysate was run on a 10% SDS-PAGE gel followed by Western blotting for Puma, p53, and actin.

p-eIF4E (Ser209) = test: Western blot for p-eIF4E (Ser209) in RKO, MCF7 and miaPaCa2 cells; format: cell-based
Procedure: For the experiments shown in FIG. 37A, RKO cells were plated at a seed density of 1×10^5 cells per well in 12-well plates the night before the addition of peptides. For PEP1 (SEQ ID NO:13) plus Ctrl (SEQ ID NO:11), Pep8 (SEQ ID NO:1), Pep8-SR (SEQ ID NO:53), and Pep8-SK (SEQ ID NO:52), 375 nM of peptide was added to […] PEP1 in 100 μL serum-free DMEM for 20 minutes before being added to the cells for 18 hours. After 18 hours, cells were harvested with 1×SDS-lysis buffer (150 μL) and then lysate was run on a 10% SDS-PAGE gel followed by Western blotting for p53, p-eIF4E (Ser209), and actin.
For the experiments shown in FIG. 37B, MCF7 cells were grown the night before in a 6-well plate seeded with 2×10^5 cells. The next day cells were treated with 2.5 μM Pen-Ctrl (SEQ ID NO:10) or Pen-Pep8 (SEQ ID NO:50) for 18 hours. The following day, the cells were lysed with 1×SDS-lysis buffer (250 μL) and lysate was run on a 10% SDS-PAGE gel. 20 μl was loaded per well followed by Western blot for p-eIF4E (Ser-209), p53, and actin.
For the experiments shown in FIG. 37C, 2×10^5 miaPaCa2 cells per well were plated the day before in a 6-well plate. The following day, the cells were treated with 2.5 μM Pen-Ctrl (SEQ ID NO:10) or Pen-Pep8 (SEP ID NO:50) for 30 minutes then treated with 6.25 ng/mL doxorubicin for 18 hours. […]

Sequence: RQIKIWFQNRRMKWKKYPYAASPA [Pen-Pep8, Penetratin fused to Pep8]
- p53 expression with low dose doxorubicin (Western blot) (p53; 2.5 μM for 20 minutes then 6.25 ng/mL doxorubicin 18 hours (FIG. 34B)): robust p53 expression
- p53 expression (Western blot) (p53; 2.5 μM, 18 hours (FIG. 32C)): induced p53 expression
- p53 protein levels (Western blot) (p53; 2.5 μM, 18 hours (FIG. 37B)): increased p53 protein levels
- colony formation, sensitization to low-dose doxorubicin (HaCaT cells): sensitized to low-dose doxorubicin
- number of tumor spheres larger than 50 μm in diameter, sensitization to low dose doxorubicin (MCF7 tumor spheres): sensitized cells to low dose doxorubicin
- colony formation, sensitization to low-dose doxorubicin [1]: sensitized to low-dose doxorubicin
- RKO tumor cell growth in a xenograft model (tumor volume, tumor weight) (RKO tumor xenograft; female nude mice, 5 μM in 50 μL PBS, intratumoral injection every 2 days for 2 weeks, versus Pen-Ctrl (FIGS. 35A-35C)): inhibited RKO tumor cell growth
- p53 and Puma protein expression in xenograft tumors (Western blot) (RKO tumor xenograft; lysate from RKO xenograft tumors after treatment, versus Pen-Ctrl (FIG. 35D)): increased p53 protein expression, as well as its target, Puma
- p-eIF4E (Ser-209) level (Western blot) (p-eIF4E (Ser209); MCF7 cells, 2.5 μM, 18 hours (FIG. 37B)): reduced p-eIF4E
- p-eIF4E (Ser209) level (Western blot) (p-eIF4E (Ser209); miaPaCa2 cells, 2.5 μM for 30 minutes then 6.25 ng/mL doxorubicin 18 hours (FIG. 37C)): substantial decrease in p-eIF4E
